In PubChem BioAssay AID2060610 (Molecular Pharmacology Branch, DTP, NCI, 2025):
“And” between values parts separate entries of the source, which are not always exact repeats. Identical values can stand only once. Values belong to the molecule of their own block, whether it stands above or below them.

Tested on: 616215-338-R-J1-PDC complex spheroids, viability % test/control
Assay: Anticancer human tumor 616215-338-R-J1-PDC patient-derived colon adenocarcinoma cell line growth inhibition [CLK]
Conditions: for viability, T/C: stronger effect = lower value
Text: A high-throughput screen of multi-cell type tumor spheroids was designed to identify active combinations of […] and targeted small molecules. Complex spheroids include a stromal component modeled by human endothelial cells (HUVEC) and fibroblasts modeled by human mesenchymal stem cells (MSCs). The concentration ranges selected for each drug and investigational agent were based upon clinically achievable concentrations if the clinical Cmax of the agent was known.
Compounds. The drugs and investigational agents: cirtuvivint (SM08502; NSC835563), CC-671 (NSC850746), vemurafenib (NSC761431), tapotoclax (NSC804041), sotorasib (NSC818433), adagrasib (NSC831453), MRTX-1133 (NSC836407), BAY2416964 (NSC825713), copanlisib (NSC816437), inavolisib (NSC800729), abemaciclib (NSC768073), osimertinib (NSC779217), entinostat (NSC756642), eltanexor (KPT-8602, NSC794443), venetoclax (NSC766270), ceralasertib (NSC777638), bortezomib (NSC756655), olaparib (NSC753686), talazoparib (NSC767125), alisertib (NSC759677), peposertib (NSC802822), gemcitabine (NSC613327), 5-fluorouracil (NSC19893), SN-38 (NSC673596), oxaliplatin (NSC266046), paclitaxel (NSC125973), and doxorubicin (NSC123127), were obtained from the National Cancer Institute (NCI) Developmental Therapeutics Program Chemical Repository. The FDA-approved anticancer drug set is available from the Developmental Therapeutics Program at https://dtp.cancer.gov/organization/dscb/obtaining/available plates.htm. […] The stock solutions were prepared in dimethyl sulfoxide (DMSO, Sigma-Aldrich, St. Louis, MO, cat. D2650), except for the platinum complexes which were prepared in saline (Quality Biological, Gaithersburg, MD, cat. 114-055-101), at 800-fold the tested concentration and stored at -70 degrees C prior to their use. All drugs and investigational agents were tested over a range starting from a high concentration at or near the clinical Cmax and decreasing in half-log increments. If the clinical Cmax for an agent had not been determined, the highest concentration tested was 10 microM.
Cell Culture. All cells were maintained in an incubator at 37 degrees C and 5% CO2 with 95% humidity. The PDC lines were cultured according to standard operating procedures established by the NCI PDMR. Briefly, all PDCs were thawed and cultured in Matrigel-coated flasks prepared with a working solution of 1X Ham's F-12 nutrient mix, without supplementation (Invitrogen, Waltham, MA, cat. 11765054), 100 U/mL penicillin-streptomycin (Invitrogen, cat. 15140122), and 2.5% Matrigel (Corning Inc., Corning, NY, cat. 354248) for the first three passages. The 947758-054-R-J2-PDC line was cultured in 6B/Colon 1A media, which includes advanced DMEM/F-12 (Thermo Fisher Scientific, cat. 12634028), 10 mM HEPES (Thermo Fisher Scientific, cat. 15630080), 1X GlutaMAX supplement (Thermo Fisher Scientific, cat. 35050061), 0.1 mg/mL primocin (InvivoGen, cat. ant-pm-2), 10% defined fetal bovine serum, heat inactivated (HyClone Laboratories Inc., cat. SH30070.03HI), 1.25 mM N-Acetyl-L-cysteine (Sigma-Aldrich, cat. A9165), 10 mM nicotinamide (Sigma-Aldrich, cat. N0636), 1X B-27 supplement (Thermo Fisher Scientific, cat. 17504044), 1X N-2 supplement (Thermo Fisher Scientific, cat. 17502048), and 10 microM Y-27632 dihydrochloride (Tocris Bioscience, cat. 1254). The 876862-298-R-J1-PDC was cultured in 6E media, which includes all 6B/Colon 1A media components plus 50% L-WRN conditioned media (ATCC, cat. CRL-3276), 50 ng/mL recombinant human EGF recombinant protein (hEGF; Thermo Fisher Scientific, cat. PHG0311), 10 ng/mL recombinant human fibroblast growth factor 10 (hGFG-10; PeproTech, cat. 100-26), 1 ng/mL recombinant human fibroblast growth factor 2 (hFGF-2; PeproTech, cat. 100-18B), and 1 µM prostaglandin E2 (PGE2; Tocris, cat. 2296). The 227483-062-R1-J1-PDC line was cultured in Panc media, containing all 6E components except hFGF-2, with the addition of 500 nM SB-431542 (Selleckchem, cat. S1067) and 10 nM gastrin (Tocris, cat. 3006). […]
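Note: spheroids exposed to agents for 7 days.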
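Throughout, for viability, T/C: 100% = DMSO vehicle wells.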

IC50 (curve of compound): 0.562 µM and 0.668 µM
Structure (SMILES): NC(=O)C(=Cn1cnc(-c2cc(C(F)(F)F)cc(C(F)(F)F)c2)n1)c1cncnc1
viability, T/C (compound 0.00949 µM): 99.3% and 94.8% | viability, T/C (compound 0.03 µM): 103% and 87.1% | viability, T/C (compound 0.0949 µM): 103% and 94.1% | viability, T/C (compound 0.3 µM): 66.9% and 87.5% | viability, T/C (compound 0.949 µM): 35.8% and 33.5% | viability, T/C (compound 3 µM): 15% and 17.6%

Structure (SMILES): COc1ccc([C@@H](O)c2cc(-c3ncnc4cc(N5CCOCC5)ccc34)c(F)cc2Cl)nn1 + CN1CCN(c2cc(C(=O)Nc3cc4cc(-c5cnn(C)c5)ccc4cn3)ccn2)CC1
IC50 (curve of first compound, second compound 0.0316 µM): > 10 µM | IC50 (curve of first compound, second compound 0.1 µM): 9.46 µM | IC50 (curve of first compound, second compound 0.316 µM): < 0.0316 µM | IC50 (curve of first compound, second compound 1 µM): < 0.0316 µM | IC50 (curve of first compound, second compound 3.16 µM): < 0.0316 µM | IC50 (curve of first compound, second compound 10 µM): < 0.0316 µM | viability, T/C (second compound 0.0316 µM, first compound 0.0316 µM): 105% | viability, T/C (second compound 0.0316 µM, first compound 0.1 µM): 106% | viability, T/C (second compound 0.0316 µM, first compound 0.316 µM): 105% | viability, T/C (second compound 0.0316 µM, first compound 1 µM): 109% | viability, T/C (second compound 0.0316 µM, first compound 3.16 µM): 111% | viability, T/C (second compound 0.0316 µM, first compound 10 µM): 67.7% | viability, T/C (second compound 0.1 µM, first compound 0.0316 µM): 122% | viability, T/C (second compound 0.1 µM, first compound 0.1 µM): 107% | viability, T/C (second compound 0.1 µM, first compound 0.316 µM): 104% | viability, T/C (second compound 0.1 µM, first compound 1 µM): 103% | viability, T/C (second compound 0.1 µM, first compound 3.16 µM): 88.4% | viability, T/C (second compound 0.1 µM, first compound 10 µM): 47.2% | viability, T/C (second compound 0.316 µM, first compound 0.0316 µM): 25.2% | viability, T/C (second compound 0.316 µM, first compound 0.1 µM): 30.6% | viability, T/C (second compound 0.316 µM, first compound 0.316 µM): 25.9% | viability, T/C (second compound 0.316 µM, first compound 1 µM): 19.8% | viability, T/C (second compound 0.316 µM, first compound 3.16 µM): 17.9% | viability, T/C (second compound 0.316 µM, first compound 10 µM): 7.77% | viability, T/C (second compound 1 µM, first compound 0.0316 µM): 0.11% | viability, T/C (second compound 1 µM, first compound 0.1 µM): 0.15% | viability, T/C (second compound 1 µM, first compound 0.316 µM): 1.72% | viability, T/C (second compound 1 µM, first compound 1 µM): 0.1% | viability, T/C (second compound 1 µM, first compound 3.16 µM): 0.59% | viability, T/C (second compound 1 µM, first compound 10 µM): 0.08% | viability, T/C (second compound 3.16 µM, first compound 0.0316 µM): 0.09% | viability, T/C (second compound 3.16 µM, first compound 0.1 µM): 0.13% | viability, T/C (second compound 3.16 µM, first compound 0.316 µM): 0.15% | viability, T/C (second compound 3.16 µM, first compound 1 µM): 0.1% | viability, T/C (second compound 3.16 µM, first compound 3.16 µM): 0.14% | viability, T/C (second compound 3.16 µM, first compound 10 µM): 0.12% | viability, T/C (second compound 10 µM, first compound 0.0316 µM): 0.11% | viability, T/C (second compound 10 µM, first compound 0.1 µM): 0.13% | viability, T/C (second compound 10 µM, first compound 0.316 µM): 0.18% | viability, T/C (second compound 10 µM, first compound 1 µM): 0.18% | viability, T/C (second compound 10 µM, first compound 3.16 µM): 1.74% | viability, T/C (second compound 10 µM, first compound 10 µM): 0.19%
